Measured values: patent US4542153A, “Methods for changing calcium metabolism within the cells of a mammal” (The Ohio State University Research Foundation, priority 1983, dated 1985)
Entries after “also recorded” stand apart in the source; their conditions may differ.

Key:
[1] = tested on: chloroform anoxia arrhythmia in mice; assay: Chloroform Anoxia Assay (chloroform-induced ventricular fibrillation); format: in vivo, Female Swiss albino mice
Protocol: The same four compounds were tested for their ability to protect mice from chloroform anoxia by the classical chloroform inhalation procedure described in Lawson J. W.: Antiarrhythmic activity of some isoquinoline derivatives determined by a rapid screening procedure in the mouse, J. Pharmacol. Exp. Ther. 160: 22-31, (1968). In this method, chloroform inhalation leading to respiratory arrest produces ventricular fibrillation. Female Swiss albino mice procured from Laboratory Supply Company, Indianapolis, Indiana, weighing 16-22 g, were pretreated intraperitoneally with the compound under test dissolved in a 5% dextrose solution 10 minutes before exposure to chloroform in a closed container containing chloroform-saturated cotton. The mice were removed from the chloroform atmosphere immediately after respiratory arrest and the electrocardiograph lead II monitored. The ED 50 and 95% confidence limits calculated for the anti-arrhythmic agents by the standard method of Litchfield and Wilcoxon.

mice = assay: Toxicity Tests (intraperitoneal LD50); format: in vivo; conditions: i.p., table: mean values and 95% confidence limits
isolated left atria = assay: Effects on isolated guinea pig atria: electrically driven left atria; format: cell-based
Description: (§1) The effects of pr-MDI, bu-MDI and Q-bu-MDI on the mechanical and electrical behavior of isolated guinea pig atria were investigated by the method of H. Nawrath, J. Pharmacol. Exp. Ther., 16, 176-182 (1980). The compounds were investigated over the concentration range of 10^-8 to 3×10^-4 M.
(§2) English short-haired guinea pigs, supplied by Carr Animal Supply, of Powell, Ohio, weighing 300-600 g. were killed by a blow on the head and both atria of the animal were quickly dissected out and suspended in a water-jacketed organ bath containing Krebs-Henseleit solution through which a 95% oxygen/5% carbon dioxide mixture was bubbled at 32° C. The solution contained 6.92 g/l of sodium chloride, 0.35 g/l of potassium chloride, 0.29 g/l of magnesium […] heptahydrate, 0.3 g/l of calcium chloride dihydrate, 0.16 g/l of potassium dihydrogen phosphate, 2.1 g/l of sodium bicarbonate and 2.1 g/l of dextrose. The contractile force generated by the isolated artria was recorded isometrically under a 500 mg. preload using a Narco Biosystems force transducer connected to a physiograph DMP-4B recorder, both the transducer and the recorder being obtained from E & M Instrument Co. of Houston, Texas.
The isolated left atria were electrically driven by square wave impulses of 3 milliseconds duration at a frequency of 3 Hz. and a voltage of twice the threshold voltage, delivered by a Grass S9 stimulator obtained from Grass Instrument Co., of Quincy, Massachusetts. Two platinum electrodes were used for the stimulation, the anode being in direct contact with the atrial tissue while the cathode had the form of a ring suspended 2.5 centimeters above the anode. Before redetermination of the threshold voltage and generation of a predrug (control) frequency-force profile over the range of 1-5 Hz., an equilibriation time of one hour was allowed. The system was then re-equilibriated at 3 Hz. and twice the threshold voltage as before, then one cumulative dose-response curve of contractile force for one test compound was obtained, followed immediately by redetermination of the threshold voltage and the generation of a post-drug frequency-force profile.
A paired Student's t-test was used to compare predrug and postdrug threshold voltages for each left atrial preparations as well as to compare developed tension at each frequency in the profile of each left atrial preparation. P values of less than 0.05 were considered statistically significant.

[2] = tested on: spontaneously beating right atria; assay: Effects on isolated guinea pig atria: spontaneously beating right atria; format: cell-based
Description: as §1, §2
Spontaneously beating right atria were tested in a similar manner.

[3] = tested on: thoracic aorta strips contracted with potassium chloride; assay: Vasodilator activity: potassium chloride-contracted aortic strips; format: cell-based, male Sprague-Dawley rats; conditions: rat aorta contracted with 40 mM potassium chloride; read-out: IC50 (mean and range of SEM) KCl
Description: Pr-MDI, bu-MDI, Q-bu-MDI and the compounds of Formulae IIIA, IIIB and IVA having the two R1 groups together forming a methylene group, each R3 a methyl group and R2 an n-propyl group or n-butyl group (the compounds of Formula III are hereinafter abbreviated as sat-pr-MDI and sat-bu-MDI respectively, reference being made where necessary to the cis isomer of Formula III A or the trans isomer of Formula III B while the compounds of Formula IV are similarly referred to as cis sat-Q-pr-MDI and cis sat-Q-bu-MDI) were tested for vasodilator activity by the method of R. F. Furchgott and S. Bhadrakom, J. P. Pharmacol. Ex. Ther., 108, 129-143 (1953).
The vasodilator activity tests were conducted on male Sprague-Dawley rats, obtained from Harlan Industries, Inc., Cumberland, Indiana. The rats, weight 250-300 g., were sacrified by cervical dislocation and a 2.5 cm. segment of the thoracic aorta was removed and rinshed in physiological buffer. Each aortic segment was cleaned of connective tissue and cut spirally two yield to strips, each 3 by 15 mm. Each strip was mounted isometrically under a tension of 1 g in a 10 ml. tissue bath thermostatically maintained at 37° C. and containing a normal physiological solution aerated with a 95% oxygen/5% carbon dioxide mixture. Forces generated by the strip were monitored using a Grass FT03 isometric transducer coupled to a Grass module 7D polygraph recorder, both the transducer and the recorder being obtained from Grass Instrument Co., of Quincy, Mass.
After the aortic tissue had been allowed to equilibriate for 1-1.5 hours in the normal physiologic solution, tissue contraction was induced by introducing either 10^-7 M norepinephrine or 40mM potassium chloride buffer to the tissue bath.
To avoid interference by loss of tension due to time dependent tissue fatigue, separate preliminary experiments were performed to determine the degree of tissue relaxation due to such fatigue and the value of the control tension generated by norepinephrine or potassium chloride prior to the addition of the test compounds was adjusted whenever the duration of the experiment was such that fatigue could be expected to cause more than a 6% loss of tension. […] All concentrations mentioned hereinafter represent the final concentration of the test compound after dilution in the tissue bath.
The figures of concentration against percent response data obtained from each aortic tissue were transformed to its appropriate probit value and IC50 values were then estimated using linear regression analysis. The normal physiological solution contained 6.9 g/l of sodium chloride, 0.35 g/l of potassium chloride, 0.11 g/l of magnesium chloride hexahydrate, 0.138 g/l of sodium dihydrogen phosphate, 2.1 g/l of sodium bicarbonate, 0.01 g/l of EDTA, 0.368 g/l of calcium chloride dihydrate and 2.0 g/l of dextrose. The high potassium buffers were obtained by substituting potassium chloride for sodium chloride on an equimolar basis to maintain tonicity.

SMILES: CCCCC1=Cc2cc3c(cc2C1[N+](C)(C)C)OCO3.[I-] (stereo not shown) [Q-bu-MDI, 2-Butyl-5,6-methylenedioxyindene-1-trimethylammonium iodide]
- Therapeutic Index (LD50/ED50) ([1]; ED50 from chloroform anoxia, LD50 i.p.): 6.2
- ED50 ([1]; i.p., 10 min before chloroform, table: mean values and 95% confidence limits, n = 40): 10.5 mg/kg
- ED50 compared with quinidine (statistical test) ([1]; i.p., p<<0.05): significantly smaller than that of quinidine
- Antiarrhythmic Potency ([1]; quinidine = 1.00, chloroform anoxia): 6.38
- LD50 (mice): 65 mg/kg
- effect on frequency-force profile/relation of the stimulated left atrium (isolated left atria; 3×10^-4 M): no significant effect
- effect on the contractile force of left atrium at the highest concentration (isolated left atria; 3×10^-4 M): partially reversed
- effect on threshold voltage required to drive the atria (isolated left atria; 3×10^-4 M): no significant effect upon the threshold voltage
- dose-dependent decrease in the contractile force of the electrically stimulated left atrium (isolated left atria; 10^-4 M, 100 µM): ≤ 20%
- effect on contractile force of the electrically stimulated left atrium (isolated left atria; 10^-8 to 3×10^-4 M): very modest; also recorded: much less than the other two compounds
- overall effect on mechanical and electrical behavior of atria (isolated left atria; 10^-8 to 3×10^-4 M): much smaller than that of bu-MDI or pr-MDI
- persistent effects on frequency-force relation and threshold voltage (isolated left atria; maximum concentration 3×10^-4 M): did not produce any persistent effects
- effect on the contractile force of right atria at the highest concentration ([2]; 3×10^-4 M): positive inotropy
- effect on spontaneous atrial rate ([2]; 10^-8 to 3×10^-4 M): only a slight decrease in the spontaneous atrial rate; also recorded: much less than the other two compounds
- effect on the contractile force of right atria ([2]; except at 3×10^-4 M for Q-bu-MDI): minimal effects on the contractile force of right atria
- IC50 [3]: 169 µM
